Marks after values point to notes of the source that are not given here.
Key:
[1] = system: cynomolgus monkeys with sustained elevated IOP; assay: IOP lowering in conscious monkeys, eyes made hypertensive by argon laser photocoagulation; type: in vivo, cynomolgus monkey; conditions: Macaca fascicularis, topical, 6 h, single 50 μl eye drop, up to 6 hours, read-out: Maximum % Decrease From Pretreatment Levels Hypertensive Eye (IOP); for inhibition in vivo at 0.1 %: ocular dose 0.1%; for inhibition in vivo at 0.3 %: ocular dose 0.3%; for inhibition in vivo at 1 %: ocular dose 1%
Excerpt: Measurements of IOP were made in fully conscious female cynomolgus monkeys weighing 3-4 kg with sustained elevated IOP that was produced in the right eye by argon laser photocoagulation of the trabecular meshwork. Animals were usable for experiments 2 months following surgery. During the experiments, monkeys sat in specially designed chairs (Primate Products, San Francisco), and were fed orange juice and fruit as needed. A 30R model Digilab pneumatonometer (Alcon, Tex.) was used to measure IOP.
Twenty five μl of an anesthetic (proparacaine) was topically applied to each monkey before IOP measurements to minimize ocular discomfort due to tonometry. Two baseline measurements were made prior to instillation of the drugs, followed by periodic measurements up to 6 hours post-instillation. The test compounds were administered unilaterally as a single 50 μl eye drop; the contralateral eyes received an equal volume of saline.

[2] = system: conscious cynomolgus monkeys; assay: Sedation score during the IOP experiments; type: in vivo, cynomolgus monkey; parameters: key to Sedation (0-4): 0=alert, typical vocalization, movement, etc.; 1=calm, less movement; 2=slightly sedated, some vocalization, responsive to stimulation; 3=sedated, no vocalization, some response to stimulation; 4=asleep; conditions: for sedation (in words): ocular administration, monkeys
Method: At the same time, sedation was measured and assessed according to the following score: 0=alert, typical vocalization, movement, etc.; 1=calm, less movement; 2=slightly sedated, some vocalization, responsive to stimulation; 3=sedated, no vocalization, some response to stimulation; 4=asleep.

[3] = biological target: T1, rat α2B (RNG gene) receptor (Rattus norvegicus, UniProt P19328); assay: RSAT (Receptor Selection and Amplification Technology) assay, alpha 2B; type: cell-based; conditions: ratio of maximal effect to that of standard full agonist oxymetazoline
T1 construct: expressed in transfected cells; host or cells: NIH-3T3 cells, calcium phosphate cotransfection
T1 sequence (P19328 1-453): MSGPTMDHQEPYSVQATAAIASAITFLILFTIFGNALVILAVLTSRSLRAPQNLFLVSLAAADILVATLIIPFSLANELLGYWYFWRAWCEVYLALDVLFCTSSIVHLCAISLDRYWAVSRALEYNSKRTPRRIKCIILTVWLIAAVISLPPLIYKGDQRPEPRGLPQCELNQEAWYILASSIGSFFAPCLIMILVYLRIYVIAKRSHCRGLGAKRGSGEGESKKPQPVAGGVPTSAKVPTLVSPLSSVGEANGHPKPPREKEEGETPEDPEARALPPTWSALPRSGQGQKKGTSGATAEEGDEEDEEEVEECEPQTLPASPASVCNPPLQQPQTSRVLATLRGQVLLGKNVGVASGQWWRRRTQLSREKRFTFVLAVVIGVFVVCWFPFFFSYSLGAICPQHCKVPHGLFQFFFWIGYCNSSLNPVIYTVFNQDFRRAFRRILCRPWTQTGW
Outline: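 NIH-3T3 cells transiently cotransfected with receptor, hybrid Gq/i5 protein and β-galactosidase marker were incubated with compound dilutions in triplicate for 72-96 hr at 37°. Proliferation was read as β-galactosidase activity (o-nitrophenyl-β-D-galactopyranoside, overnight at 30°, OD 420 nm). EC50 and efficacy were derived, the latter relative to a standard full agonist's maximal effect.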

[4] = system: conscious cynomolgus monkeys; assay: Cardiovascular side effects (blood pressure, heart rate) after i.v. administration; type: in vivo, cynomolgus monkey; conditions: up to 6 hours, + with * = increase from base levels
Excerpt: Cardiovascular measurements were made in a different group of monkeys using a BP 100S automated sphygmomanometer (Nippon Colin,. Japan).

[5] = system: rat retinal ganglion cells after optic nerve injury; assay: Calibrated rat optic nerve injury model, retinal ganglion cell numbers; type: in vivo
Excerpt: These models include light-induced photoreceptor degeneration in albino rat, as described in Wen et al, “Alpha2-adrenergic agonists induce basic fibroblast growth factor expression in photoreceptors in vivo and ameliorate light damage.” J. Neurosci. […] Invest. Ophthalmol. Vis. Sci. 37, 540,S114. […] Additionally commonly assigned and co-pending application, 08/496,292 filed on 28 Jun.

[6] = system: rats with ligation of two spinal nerves; assay: Spinal nerve ligation model of neuropathic pain, reversal of tactile allodynia; type: in vivo, rat; conditions: for Reversal of Tactile Allodynia (%): 30 minutes after dosing
Excerpt: (§1) Alleviation of pain including neuropathic pain is another example of a disorder in which the compounds of the invention are useful and advantageous since pain is alleviated without undesirable side effects. […] (See, for example, Kim, S. and Chung, J. “An experimental model for peripheral neuropathy produced by segmental spinal nerve ligation in the rat.” Pain 50 pp. 355-363 (1992).) Following ligation of two spinal nerves, the animals develop a sensitivity to normally non-painful stimuli such as touch. The ability of alpha2 compounds to reverse this sensitivity, called allodynia, was tested 30 minutes after dosing by either intrathecal or intraperitoneal administration. The sedative activity of each compound was also measured using an activity chamber.

rats = assay: Sedative activity measured using an activity chamber; type: in vivo, rat; conditions: for Sedation (%): 30 minutes after dosing; for sedation (in words): intrathecal or intraperitoneal, rats
Excerpt: as §1

Compound	inhibition in vivo at 0.3 % [1]	Sedation (0-4) ([2]; ocular dose 0.1%)	Sedation (0-4) ([2]; ocular dose 0.3%)	Intrinsic Activity Relative to Oxymetazoline, Alpha 2B [3]	Maximum % Decrease From Pretreatment Levels, Heart Rate ([4]; i.v. 500 μg/kg)	Maximum % Decrease From Pretreatment Levels, Mean Arterial Blood Pressure ([4]; i.v. 500 μg/kg)	inhibition in vivo at 1 % [1]	Sedation (0-4) ([2]; ocular dose 1%)	Maximum % Decrease From Pretreatment Levels, Heart Rate ([4]; i.v. 17 μg/kg)	Maximum % Decrease From Pretreatment Levels, Mean Arterial Blood Pressure ([4]; i.v. 17 μg/kg)	Maximum % Decrease From Pretreatment Levels, Heart Rate ([4]; i.v. 50 μg/kg)	Maximum % Decrease From Pretreatment Levels, Mean Arterial Blood Pressure ([4]; i.v. 50 μg/kg)	sedation (in words) (rats)	also measured
Cl.O=C1c2ccsc2CCC1Cc1c[nH]cn1 (stereo not drawn) [Example B-9b, 5-(1H-imidazol-4(5)-ylmethyl)-6,7-dihydro-5H-benzo[b]thiophen-4-one, hydrogen chloride salt]	26.9 ± 6.1%	0	0	0.68	+20.2 ± 3.4* %	2.8 ± 1.8%								inhibition in vivo at 0.1 % [1]: 18.7 ± 5.5%; Retinal Ganglion Cell Numbers at 2 Weeks Post-Injury ([5]; 0.5 mg/kg i.p., vehicle control 33 ± 8): 73 ± 12 cells/microscopic field; neuroprotection (in words) ([5]; calibrated rat optic nerve injury model): neuroprotective
CN1CCOc2ccc(N=C3NCCN3)cc21 [Example E-1, imidazolidin-2-ylidene-(4-methyl-3,4-dihydro-2H-benzo[1,4]oxazin-6-yl) amine]	25 ± 4%		0	0.83			27 ± 3%	0	11 ± 4%	7 ± 4%	14 ± 5%	7 ± 2%		Maximum % Decrease From Pretreatment Levels, Heart Rate ([4]; i.v. 167 μg/kg): 11 ± 5%; Maximum % Decrease From Pretreatment Levels, Mean Arterial Blood Pressure ([4]; i.v. 167 μg/kg): 9 ± 4%
c1nc(CC2CCCCC2)c[nH]1 [Example J-1, 4(5)-cyclohexylmethyl-1H-imidazole]				0.83	7 ± 4%	13 ± 3%	26 ± 5%	0	13 ± 4%	7 ± 5.3%	6 ± 2%	4 ± 2%		inhibition in vivo at 3 % ([1]; ocular dose 3%): 33 ± 3%; Sedation (0-4) ([2]; ocular dose 3%): 0; Maximum % Decrease From Pretreatment Levels, Heart Rate ([4]; i.v. 167 μg/kg): 3 ± 3%; Maximum % Decrease From Pretreatment Levels, Mean Arterial Blood Pressure ([4]; i.v. 167 μg/kg): 7 ± 5%
c1ccc2c(c1)CC[C@H](Cc1c[nH]cn1)C2 [Example J-2, (S)-4(5)-(1,2,3,4-tetrahydronaphthalen-2-ylmethyl)-1H-imidazole]			0	0.8	6.4 ± 3.3%	+0.6 ± 3.1* %								inhibition in vivo at 0.03 % ([1]; ocular dose 0.03%): 12.4 ± 3.7%; Sedation (0-4) ([2]; ocular dose 0.03%): 0
Cl.O=C1C2=C(CCCC2)CCC1Cc1c[nH]cn1 (stereo not drawn) [Example N-1, 2-(1H-imidazol-4(5)-ylmethyl)-3,4,5,6,7,8-hexahydro-2H-naphthalen-1-one, hydrochloride salt]				0.75									without causing sedation, even at very high doses	Reversal of Tactile Allodynia (%) ([6]; intraperitoneal 3 mg/kg): 3%; Reversal of Tactile Allodynia (%) ([6]; intraperitoneal 30 mg/kg): 41* %; Reversal of Tactile Allodynia (%) ([6]; intrathecal 3 μg): 13%; Reversal of Tactile Allodynia (%) ([6]; intrathecal 30 μg): 64* %; alleviation of allodynia (in words) ([6]; intrathecal or intraperitoneal, rats): able to alleviate the allodynia; Sedation (%) (rats; intraperitoneal 10,000 mg/kg): 0%; Sedation (%) (rats; intrathecal 30 μg): 0%; Sedation (%) (rats; intrathecal 300 μg): 0%
Cc1[nH]cnc1Cc1ccc2c(c1)OCCO2 [M, 4-(2,3-dihydrobenzo[1,4]dioxin-6-ylmethyl)-5-methyl-1H-imidazole]				0.97	5.5 ± 1.9%	0.8 ± 2.3%	22.5 ± 5.4%	0						
Brc1c(NC2=NCCN2)ccc2nccnc12 [brimonidine, reference compound]	40 ± 4%	1	2						52 ± 3%	36 ± 3%	54 ± 3%	37 ± 5%	cause sedation at doses only slightly higher than their anti-allodynic doses	inhibition in vivo at 0.1 % [1]: 25 ± 3%; Reversal of Tactile Allodynia (%) ([6]; intraperitoneal 3 mg/kg): 0%; Reversal of Tactile Allodynia (%) ([6]; intraperitoneal 30 mg/kg): 37* %; Sedation (%) (rats; intraperitoneal 30 mg/kg): 24%; Sedation (%) (rats; intraperitoneal 300 mg/kg): 67* %; sedation (in words) [2]: caused sedation
Clc1cccc(Cl)c1N=C1NCCN1 [clonidine, reference compound]	41 ± 5%	1	2						32 ± 4%	29 ± 7%	50 ± 5%	35 ± 5%	cause sedation at doses only slightly higher than their anti-allodynic doses	Reversal of Tactile Allodynia (%) ([6]; intrathecal 0.1 μg): 20* %; Reversal of Tactile Allodynia (%) ([6]; intrathecal 1 μg): 96* %; Sedation (%) (rats; intrathecal 1 μg): 15%; Sedation (%) (rats; intrathecal 10 μg): 60* %; sedation (in words) [2]: caused sedation

— patent publication US6841684B2, “Imidiazoles having reduced side effects” (Allergan, Inc., priority 1997, dated 2005)
